Literature values, collected in patent US4195171A, “Derivatives of an antibiotic XK-62-2 and process for the production thereof” (Abbott Laboratories, priority 1975, dated 1980).

Details: cited from earlier work

CNCC1CCC(N)C(OC2C(N)CC(N)C(OC3OCC(C)(O)C(NC)C3O)C2O)O1 (centres unmarked) [XK-62-2]
solubility in acetone (acetone): slightly soluble | solubility in benzene (benzene): insoluble | solubility in chloroform (chloroform): insoluble | solubility in ethanol (ethanol): slightly soluble | solubility in ethyl acetate (ethyl acetate): insoluble | solubility in methanol (methanol): freely soluble | solubility in n-hexane (n-hexane): insoluble | solubility in water (water): freely soluble
